Publication PMC8398255, “Synthesis of 3,5-Bis(trifluoromethyl)phenyl-Substituted Pyrazole Derivatives as Potent Growth Inhibitors of Drug-Resistant Bacteria” (Molecules, 2021)
≈ marks a conversion by molar mass, not a printed value.

Assays:
[1] = tested on: Gram-positive bacteria; assay: MIC across the tested strains; assay type: cell-based; conditions: for MIC: across the tested strains; for antibacterial activity: tested bacteria
Protocol: (§1) Compounds were dissolved in dimethyl sulfoxide (DMSO) to achieve a starting concentration of 32 µg/mL as described by us previously. Compounds were further diluted two-fold across the 96-well honeycomb plate columns in cation adjusted Mueller Hinton broth (CAMHB), and bacterial culture was added. Plates were incubated for 18–20 h at 35 ℃ before determining the minimum concentrations at which wells had no visible turbidity to the naked eye. The MIC values were determined from at least a duplicate result obtained from three independent experiments using fresh bacterial cultures on different days.

[2] = tested on: S. aureus strains; assay: MIC against S. aureus strains; assay type: cell-based, Staphylococcus aureus; conditions: for times more effective than vancomycin and daptomycin: against S. aureus strains
Protocol: as §1

[3] = tested on: S. aureus BAA-2312 (Sa12); assay: MIC, microdilution (CLSI); assay type: cell-based; conditions: Staphylococcus aureus, BAA2312; Sa12, methicillin-resistant S. aureus BAA-2312; n = 3; read-out: MIC
Protocol: as §1

[4] = tested on: E. faecalis ATCC 51299 (Ef99); assay: MIC, microdilution (CLSI); assay type: cell-based; conditions: Enterococcus faecalis, ATCC 51299 / VRE; Ef99, vancomycin-resistant (VRE) E. faecalis ATCC 51299; n = 3; read-out: MIC
Protocol: as §1

[5] = tested on: S. epidermidis ATCC 700296 (Se); assay: MIC, microdilution (CLSI); assay type: cell-based; conditions: Staphylococcus epidermidis, ATCC700296; Se, S. epidermidis ATCC 700296; n = 3; read-out: MIC
Protocol: as §1

[6] = tested on: S. aureus ATCC 25923 (Sa23); assay: MIC, microdilution (CLSI); assay type: cell-based; conditions: Staphylococcus aureus, ATCC25923; Sa23, antibiotic susceptible S. aureus ATCC 25923; n = 3; read-out: MIC
Protocol: as §1

[7] = tested on: Bacillus subtilis ATCC 6623 (Bs); assay: MIC, microdilution (CLSI); assay type: cell-based; conditions: ATCC6623; Bs, Bacillus subtilis ATCC 6623; n = 3; read-out: MIC
Protocol: as §1

[8] = tested on: S. aureus ATCC 33591 (Sa91); assay: MIC, microdilution (CLSI); assay type: cell-based; conditions: Staphylococcus aureus, ATCC33591; Sa91, methicillin-resistant S. aureus ATCC 33591; n = 3; read-out: MIC
Protocol: as §1

[9] = tested on: S. aureus ATCC 700699 (Sa99); assay: MIC, microdilution (CLSI); assay type: cell-based; conditions: Staphylococcus aureus, ATCC700699; Sa99, methicillin-resistant S. aureus ATCC 700699; n = 3; read-out: MIC
Protocol: as §1

[10] = tested on: E. faecalis ATCC 29212 (Ef12); assay: MIC, microdilution (CLSI); assay type: cell-based; conditions: Enterococcus faecalis, ATCC29212; Ef12, antibiotic susceptible E. faecalis ATCC 29212; n = 3; read-out: MIC
Protocol: as §1

[11] = tested on: E. faecium ATCC 700221 (Ef21); assay: MIC, microdilution (CLSI); assay type: cell-based; conditions: Enterococcus faecium, ATCC 700221 / VRE; Ef21, vancomycin-resistant (VRE) E. faecium ATCC 700221; n = 3; read-out: MIC
Protocol: as §1

[12] = tested on: S. aureus ATCC 33592 (Sa92); assay: MIC, microdilution (CLSI); assay type: cell-based; conditions: Staphylococcus aureus, ATCC33592; Sa92, methicillin-resistant S. aureus ATCC 33592; n = 3; read-out: MIC
Protocol: as §1

MIC ([2]; Staphylococcus aureus, S. aureus strains, including MRSA) | Compound | MIC [1] | times more effective than vancomycin and daptomycin [2] | MIC [3] | MIC [4] | MIC [5] | MIC [6] | MIC [7] | MIC [8] | MIC [9] | MIC [10] | MIC [11] | MIC [12] | antibacterial activity [1]
– | O=C(O)c1ccc(-n2cc(CNc3cc(Cl)c(F)cc3F)c(-c3cc(C(F)(F)F)cc(C(F)(F)F)c3)n2)cc1 [Compound 26, 4-[3-[3,5-Bis(trifluoromethyl)phenyl]-4-[(5-chloro-2,4-difluoro-anilino)methyl]pyraz-ol-1-yl] benzoic acid] | ≥ 0.25 µg/mL | up to 4 times | 0.25 µg/mL (≈ 0.434 µM) | 2 µg/mL (≈ 3.47 µM) | 4 µg/mL (≈ 6.95 µM) | 2 µg/mL (≈ 3.47 µM) | 0.25 µg/mL (≈ 0.434 µM) | 2 µg/mL (≈ 3.47 µM) | 1 µg/mL (≈ 1.74 µM) | 1 µg/mL (≈ 1.74 µM) | 0.25 µg/mL (≈ 0.434 µM) | 1 µg/mL (≈ 1.74 µM) | –
– | O=C(O)c1ccc(-n2cc(CNc3ccc(F)c(C(F)(F)F)c3)c(-c3cc(C(F)(F)F)cc(C(F)(F)F)c3)n2)cc1 [Compound 22, 4-[3-[3,5-Bis(trifluoromethyl)phenyl]-4-[[4-fluoro-3-(trifluoromethyl)anilino]methyl]pyrazol-1-yl] benzoic acid] | – | up to 4 times | 1 µg/mL (≈ 1.69 µM) | 2 µg/mL (≈ 3.38 µM) | 2 µg/mL (≈ 3.38 µM) | 1 µg/mL (≈ 1.69 µM) | 2 µg/mL (≈ 3.38 µM) | 1 µg/mL (≈ 1.69 µM) | 1 µg/mL (≈ 1.69 µM) | 2 µg/mL (≈ 3.38 µM) | 1 µg/mL (≈ 1.69 µM) | 1 µg/mL (≈ 1.69 µM) | –
– | O=C(O)c1ccc(-n2cc(CNc3ccc(Cl)c(Cl)c3)c(-c3cc(C(F)(F)F)cc(C(F)(F)F)c3)n2)cc1 [Compound 19, 4-[3-[3,5-Bis(trifluoromethyl)phenyl]-4-[(3,4-dichloroanilino)methyl]pyrazol-1-yl] benzoic acid] | ≥ 0.5 µg/mL | up to 4 times | 0.5 µg/mL (≈ 0.871 µM) | 1 µg/mL (≈ 1.74 µM) | 1 µg/mL (≈ 1.74 µM) | 1 µg/mL (≈ 1.74 µM) | 1 µg/mL (≈ 1.74 µM) | 0.5 µg/mL (≈ 0.871 µM) | 2 µg/mL (≈ 3.48 µM) | 1 µg/mL (≈ 1.74 µM) | 1 µg/mL (≈ 1.74 µM) | 1 µg/mL (≈ 1.74 µM) | –
1 to 2 µg/mL (≈ 1.83 to 3.65 µM) | CC(C)c1ccc(NCc2cn(-c3ccc(C(=O)O)cc3)nc2-c2cc(C(F)(F)F)cc(C(F)(F)F)c2)cc1 [Compound 2, 4-[3-[3,5-Bis(trifluoromethyl)phenyl]-4-[(4-isopropylanilino)methyl]pyrazol-1-yl] benzoic acid] | – | – | 1 µg/mL (≈ 1.83 µM) | 1 µg/mL (≈ 1.83 µM) | 2 µg/mL (≈ 3.65 µM) | 2 µg/mL (≈ 3.65 µM) | 1 µg/mL (≈ 1.83 µM) | 1 µg/mL (≈ 1.83 µM) | 2 µg/mL (≈ 3.65 µM) | 2 µg/mL (≈ 3.65 µM) | 1 µg/mL (≈ 1.83 µM) | 1 µg/mL (≈ 1.83 µM) | –
– | O=C(O)c1ccc(-n2cc(CNc3cc(Cl)cc(Cl)c3)c(-c3cc(C(F)(F)F)cc(C(F)(F)F)c3)n2)cc1 [Compound 20, 4-[3-[3,5-Bis(trifluoromethyl)phenyl]-4-[(3,5-dichloroanilino)methyl]pyrazol-1-yl] benzoic acid] | ≥ 0.5 µg/mL | up to 4 times | 1 µg/mL (≈ 1.74 µM) | 1 µg/mL (≈ 1.74 µM) | 2 µg/mL (≈ 3.48 µM) | 1 µg/mL (≈ 1.74 µM) | 1 µg/mL (≈ 1.74 µM) | 0.5 µg/mL (≈ 0.871 µM) | 1 µg/mL (≈ 1.74 µM) | 1 µg/mL (≈ 1.74 µM) | 1 µg/mL (≈ 1.74 µM) | 1 µg/mL (≈ 1.74 µM) | –
– | O=C(O)c1ccc(-n2cc(CNc3ccccc3)c(-c3cc(C(F)(F)F)cc(C(F)(F)F)c3)n2)cc1 [Compound 1, 4-[4-(Anilinomethyl)-3-[3,5-bis(trifluoromethyl)phenyl]pyrazol-1-yl] benzoic acid] | ≥ 2 µg/mL | – | 2 µg/mL (≈ 3.96 µM) | 4 µg/mL (≈ 7.91 µM) | 8 µg/mL (≈ 15.8 µM) | 4 µg/mL (≈ 7.91 µM) | 2 µg/mL (≈ 3.96 µM) | 4 µg/mL (≈ 7.91 µM) | 4 µg/mL (≈ 7.91 µM) | 8 µg/mL (≈ 15.8 µM) | 4 µg/mL (≈ 7.91 µM) | 4 µg/mL (≈ 7.91 µM) | –
– | Cc1cc(NCc2cn(-c3ccc(C(=O)O)cc3)nc2-c2cc(C(F)(F)F)cc(C(F)(F)F)c2)ccc1Br [Compound 16, 4-[3-[3,5-Bis(trifluoromethyl)phenyl]-4-[(4-bromo-3-methyl-anilino)methyl]pyrazol-1-yl] benzoic acid] | ≥ 1 µg/mL | – | 1 µg/mL (≈ 1.67 µM) | 2 µg/mL (≈ 3.34 µM) | 2 µg/mL (≈ 3.34 µM) | 1 µg/mL (≈ 1.67 µM) | 1 µg/mL (≈ 1.67 µM) | 1 µg/mL (≈ 1.67 µM) | 2 µg/mL (≈ 3.34 µM) | 1 µg/mL (≈ 1.67 µM) | 1 µg/mL (≈ 1.67 µM) | 1 µg/mL (≈ 1.67 µM) | –
– | O=C(O)c1ccc(-n2cc(CNc3cccc(C(=O)O)c3)c(-c3cc(C(F)(F)F)cc(C(F)(F)F)c3)n2)cc1 [Compound 12, 3-[[3-[3,5-Bis(trifluoromethyl)phenyl]-1-(4-carboxyphenyl)pyrazol-4-yl]methylamino] benzoic acid] | – | – | > 32 µg/mL | > 32 µg/mL | > 32 µg/mL | > 32 µg/mL | > 32 µg/mL | > 32 µg/mL | > 32 µg/mL | > 32 µg/mL | > 32 µg/mL | > 32 µg/mL | eliminated the activity
– | O=C(O)c1ccc(-n2cc(CNc3ccc(F)c(F)c3)c(-c3cc(C(F)(F)F)cc(C(F)(F)F)c3)n2)cc1 [Compound 17, 4-[3-[3,5-Bis(trifluoromethyl)phenyl]-4-[(3,4-difluoroanilino)methyl]pyrazol-1-yl] benzoic acid] | 1 to 4 µg/mL (≈ 1.85 to 7.39 µM) | – | 2 µg/mL (≈ 3.69 µM) | 4 µg/mL (≈ 7.39 µM) | 4 µg/mL (≈ 7.39 µM) | 2 µg/mL (≈ 3.69 µM) | 1 µg/mL (≈ 1.85 µM) | 2 µg/mL (≈ 3.69 µM) | 2 µg/mL (≈ 3.69 µM) | 4 µg/mL (≈ 7.39 µM) | 2 µg/mL (≈ 3.69 µM) | 2 µg/mL (≈ 3.69 µM) | –
– | O=C(O)c1ccc(NCc2cn(-c3ccc(C(=O)O)cc3)nc2-c2cc(C(F)(F)F)cc(C(F)(F)F)c2)cc1 [Compound 13, 4-[[3-[3,5-Bis(trifluoromethyl)phenyl]-1-(4-carboxyphenyl)pyrazol-4-yl]methylamino] benzoic acid] | – | – | 32 µg/mL (≈ 58.2 µM) | > 32 µg/mL | > 32 µg/mL | > 32 µg/mL | > 32 µg/mL | > 32 µg/mL | > 32 µg/mL | > 32 µg/mL | > 32 µg/mL | > 32 µg/mL | eliminated the activity
